Legend:
[1] = target: T1, human mortalin (mtHsp70, GRP75, HspA9, PBP74) (Homo sapiens, UniProt P38646); test: isothermal titration calorimetry; format: binding
T1 construct: monomeric SEC fraction, alkaline phosphatase treated

[2] = target: T2, human Hsp70-1A (Homo sapiens, UniProt P0DMV8); test: ATPase, EnzChek phosphate assay, Michaelis-Menten fit; format: biochemical; conditions: TKP buffer without phosphate pH 7.5, 2 mM Mg2+, 37°C, no co-chaperone
T2 construct: gene HSPA1A; recombinant, expressed in E. coli BL21(DE3) as previously described
Text: ATPase, EnzChek phosphate assay, Michaelis-Menten fit on human Hsp70-1A

T1 sequence (P38646 47-679): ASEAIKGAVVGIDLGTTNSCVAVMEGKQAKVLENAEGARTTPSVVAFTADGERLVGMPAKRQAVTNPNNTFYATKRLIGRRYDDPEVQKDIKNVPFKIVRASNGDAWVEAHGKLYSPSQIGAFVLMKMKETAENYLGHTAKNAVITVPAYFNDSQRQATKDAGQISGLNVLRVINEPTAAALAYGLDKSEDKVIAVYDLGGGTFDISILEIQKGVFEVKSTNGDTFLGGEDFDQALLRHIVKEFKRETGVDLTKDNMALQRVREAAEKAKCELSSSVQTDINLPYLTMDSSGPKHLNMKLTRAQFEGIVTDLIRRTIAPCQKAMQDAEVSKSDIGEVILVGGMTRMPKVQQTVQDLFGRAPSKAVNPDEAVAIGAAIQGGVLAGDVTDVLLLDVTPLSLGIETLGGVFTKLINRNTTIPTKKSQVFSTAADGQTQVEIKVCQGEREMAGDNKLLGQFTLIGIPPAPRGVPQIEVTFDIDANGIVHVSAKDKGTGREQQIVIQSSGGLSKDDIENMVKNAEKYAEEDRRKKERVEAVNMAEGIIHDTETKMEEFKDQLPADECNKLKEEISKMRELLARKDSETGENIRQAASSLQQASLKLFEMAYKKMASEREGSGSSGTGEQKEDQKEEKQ
T2 sequence (P0DMV8 2-641): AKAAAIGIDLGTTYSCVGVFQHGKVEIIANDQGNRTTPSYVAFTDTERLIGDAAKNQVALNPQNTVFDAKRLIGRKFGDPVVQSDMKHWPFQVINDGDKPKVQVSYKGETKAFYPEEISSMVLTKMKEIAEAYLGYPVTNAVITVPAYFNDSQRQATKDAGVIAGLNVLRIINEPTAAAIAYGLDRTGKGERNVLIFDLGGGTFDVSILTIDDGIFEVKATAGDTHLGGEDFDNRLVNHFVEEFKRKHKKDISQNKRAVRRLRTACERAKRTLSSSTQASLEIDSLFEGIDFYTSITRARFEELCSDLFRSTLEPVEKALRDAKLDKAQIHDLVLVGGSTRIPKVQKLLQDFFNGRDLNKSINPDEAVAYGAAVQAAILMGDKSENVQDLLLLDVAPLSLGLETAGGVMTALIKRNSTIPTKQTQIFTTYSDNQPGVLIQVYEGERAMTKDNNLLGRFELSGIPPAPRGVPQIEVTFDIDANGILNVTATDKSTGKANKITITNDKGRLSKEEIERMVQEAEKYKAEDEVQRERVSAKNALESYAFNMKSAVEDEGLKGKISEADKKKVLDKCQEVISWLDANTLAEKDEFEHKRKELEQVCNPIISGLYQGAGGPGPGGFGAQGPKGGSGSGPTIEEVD

Compound	Kd [1] [nM]	Km [2] [µM]
Nc1ncnc2c1ncn2[C@@H]1O[C@H](COP(=O)(O)OP(=O)(O)O)[C@@H](O)[C@H]1O [ADP]	2200 ± 100	
Nc1ncnc2c1ncn2[C@@H]1O[C@H](COP(=O)(O)OP(=O)(O)OP(=O)(O)O)[C@@H](O)[C@H]1O [ATP]	1100 ± 100	270 ± 40

— article PMC4304843, “Human Mitochondrial Hsp70 (Mortalin): Shedding Light on ATPase Activity, Interaction with Adenosine Nucleotides, Solution Structure and Domain Organization” (PLoS ONE, 2015)
